Results taken from PubChem BioAssay (NCI).
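Exposure lasted 48 hours, with cells grown in 96-well plates and compounds tested at five concentrations. At the GI50, growth is halved. At the TGI there is no net growth.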

Key:
Experiment in all cases: growth of human tumour cells (NCI), 48 h; in the data active = GI50 below about 0.43 µM; inactive = the rest
HS 578T breast = tested on: HS 578T breast
SK-MEL-2 melanoma = tested on: SK-MEL-2 melanoma
T-47D breast = tested on: T-47D breast
SF-295 CNS = tested on: SF-295 CNS
786-0 renal = tested on: 786-0 renal
SNB-75 CNS = tested on: SNB-75 CNS
SF-539 CNS = tested on: SF-539 CNS
IGROV1 ovarian = tested on: IGROV1 ovarian
OVCAR-3 ovarian = tested on: OVCAR-3 ovarian
U251 CNS = tested on: U251 CNS
ACHN renal = tested on: ACHN renal
MDA-MB-435 = tested on: MDA-MB-435
PC-3 prostate = tested on: PC-3 prostate
NCI-H522 lung = tested on: NCI-H522 lung
TK-10 renal = tested on: TK-10 renal
KM12 colon = tested on: KM12 colon
EKVX NSCLC = tested on: EKVX NSCLC
MCF7 breast = tested on: MCF7 breast
SK-OV-3 ovarian = tested on: SK-OV-3 ovarian
A498 renal = tested on: A498 renal
SW-620 colon = tested on: SW-620 colon
RXF 393 renal = tested on: RXF 393 renal
OVCAR-4 ovarian = tested on: OVCAR-4 ovarian
MDA-N = tested on: MDA-N
SK-MEL-28 melanoma = tested on: SK-MEL-28 melanoma
SF-268 CNS = tested on: SF-268 CNS
HCC-2998 colon = tested on: HCC-2998 colon
LOX IMVI melanoma = tested on: LOX IMVI melanoma
UACC-62 melanoma = tested on: UACC-62 melanoma
NCI-H226 lung = tested on: NCI-H226 lung
NCI/ADR-RES ovarian = tested on: NCI/ADR-RES ovarian
M14 melanoma = tested on: M14 melanoma
K-562 leukemia = tested on: K-562 leukemia
NCI-H23 lung = tested on: NCI-H23 lung
HOP-62 NSCLC = tested on: HOP-62 NSCLC
HCT-116 colon = tested on: HCT-116 colon
HOP-92 NSCLC = tested on: HOP-92 NSCLC
MDA-MB-231 breast = tested on: MDA-MB-231 breast
BT-549 breast = tested on: BT-549 breast
OVCAR-5 ovarian = tested on: OVCAR-5 ovarian
MOLT-4 leukemia = tested on: MOLT-4 leukemia
COLO 205 colon = tested on: COLO 205 colon
SR leukemia = tested on: SR leukemia
HT29 colon = tested on: HT29 colon
RPMI-8226 leukemia = tested on: RPMI-8226 leukemia
OVCAR-8 ovarian = tested on: OVCAR-8 ovarian
SN12C renal = tested on: SN12C renal
UACC-257 melanoma = tested on: UACC-257 melanoma
SK-MEL-5 melanoma = tested on: SK-MEL-5 melanoma
CAKI-1 renal = tested on: CAKI-1 renal
UO-31 renal = tested on: UO-31 renal
DU-145 prostate = tested on: DU-145 prostate
SNB-19 CNS = tested on: SNB-19 CNS
MALME-3M melanoma = tested on: MALME-3M melanoma
HCT-15 colon = tested on: HCT-15 colon
HL-60(TB) leukemia = tested on: HL-60(TB) leukemia
A549 NSCLC = tested on: A549 NSCLC
NCI-H460 lung = tested on: NCI-H460 lung

COC([CH2][Hg][n]1cnc2c1c(=O)n(C)c(=O)n2C)CN1C(=O)c2ccccc2S1(=O)=O (stereo unspecified)
inactive: GI50 (HS 578T breast) > 100 µM | GI50 (SK-MEL-2 melanoma) > 100 µM | GI50 (T-47D breast) > 100 µM | GI50 (SF-295 CNS) > 100 µM | GI50 (786-0 renal) > 100 µM | GI50 (SNB-75 CNS) > 100 µM | GI50 (SF-539 CNS) > 100 µM | GI50 (IGROV1 ovarian) > 100 µM | GI50 (OVCAR-3 ovarian) > 100 µM | GI50 (U251 CNS) > 100 µM | GI50 (ACHN renal) > 100 µM | GI50 (MDA-MB-435) > 100 µM | GI50 (PC-3 prostate) > 100 µM | GI50 (NCI-H522 lung) > 100 µM | GI50 (TK-10 renal) > 100 µM | GI50 (KM12 colon) > 100 µM | GI50 (EKVX NSCLC) > 100 µM | GI50 (MCF7 breast) > 100 µM | GI50 (SK-OV-3 ovarian) > 100 µM | GI50 (A498 renal) > 100 µM | GI50 (SW-620 colon) > 100 µM | GI50 (RXF 393 renal) > 100 µM | GI50 (OVCAR-4 ovarian) > 100 µM | GI50 (MDA-N) > 100 µM | GI50 (SK-MEL-28 melanoma) > 100 µM | GI50 (SF-268 CNS) > 100 µM | GI50 (HCC-2998 colon) > 100 µM | GI50 (LOX IMVI melanoma) > 100 µM | GI50 (UACC-62 melanoma) > 100 µM | GI50 (NCI-H226 lung) > 100 µM | GI50 (NCI/ADR-RES ovarian) > 100 µM | GI50 (M14 melanoma) > 100 µM | GI50 (K-562 leukemia) > 100 µM | GI50 (NCI-H23 lung) > 100 µM | GI50 (HOP-62 NSCLC) > 100 µM | GI50 (HCT-116 colon) > 100 µM | GI50 (HOP-92 NSCLC) > 100 µM | GI50 (MDA-MB-231 breast) > 100 µM | GI50 (BT-549 breast) > 100 µM | GI50 (OVCAR-5 ovarian) > 100 µM | GI50 (MOLT-4 leukemia) > 100 µM | GI50 (COLO 205 colon) > 100 µM | GI50 (SR leukemia) 77.2 µM | GI50 (HT29 colon) > 100 µM | GI50 (RPMI-8226 leukemia) > 100 µM | GI50 (OVCAR-8 ovarian) > 100 µM | GI50 (SN12C renal) > 100 µM | GI50 (UACC-257 melanoma) > 100 µM | GI50 (SK-MEL-5 melanoma) > 100 µM | GI50 (CAKI-1 renal) > 100 µM | GI50 (UO-31 renal) > 100 µM | GI50 (DU-145 prostate) > 100 µM | GI50 (SNB-19 CNS) > 100 µM | GI50 (MALME-3M melanoma) > 100 µM | GI50 (HCT-15 colon) > 100 µM | GI50 (HL-60(TB) leukemia) 53.4 µM | GI50 (A549 NSCLC) > 100 µM | GI50 (NCI-H460 lung) > 100 µM
> 100 µM: TGI (HS 578T breast) | TGI (SK-MEL-2 melanoma) | TGI (T-47D breast) | TGI (SF-295 CNS) | TGI (786-0 renal) | TGI (SNB-75 CNS) | TGI (SF-539 CNS) | TGI (IGROV1 ovarian) | TGI (OVCAR-3 ovarian) | TGI (U251 CNS) | TGI (ACHN renal) | TGI (MDA-MB-435) | TGI (PC-3 prostate) | TGI (NCI-H522 lung) | TGI (TK-10 renal) | TGI (KM12 colon) | TGI (EKVX NSCLC) | TGI (MCF7 breast) | TGI (SK-OV-3 ovarian) | TGI (A498 renal) | TGI (SW-620 colon) | TGI (RXF 393 renal) | TGI (OVCAR-4 ovarian) | TGI (MDA-N) | TGI (SK-MEL-28 melanoma) | TGI (SF-268 CNS) | TGI (HCC-2998 colon) | TGI (LOX IMVI melanoma) | TGI (UACC-62 melanoma) | TGI (NCI-H226 lung) | TGI (NCI/ADR-RES ovarian) | TGI (M14 melanoma) | TGI (K-562 leukemia) | TGI (NCI-H23 lung) | TGI (HOP-62 NSCLC) | TGI (HCT-116 colon) | TGI (HOP-92 NSCLC) | TGI (MDA-MB-231 breast) | TGI (BT-549 breast) | TGI (OVCAR-5 ovarian) | TGI (MOLT-4 leukemia) | TGI (COLO 205 colon) | TGI (SR leukemia) | TGI (HT29 colon) | TGI (RPMI-8226 leukemia) | TGI (OVCAR-8 ovarian) | TGI (SN12C renal) | TGI (UACC-257 melanoma) | TGI (SK-MEL-5 melanoma) | TGI (CAKI-1 renal) | TGI (UO-31 renal) | TGI (DU-145 prostate) | TGI (SNB-19 CNS) | TGI (MALME-3M melanoma) | TGI (HCT-15 colon) | TGI (HL-60(TB) leukemia) | TGI (A549 NSCLC) | TGI (NCI-H460 lung)
